Reference: article PMC10247784, “Physiological activation of human and mouse bitter taste receptors by bile acids” (Communications Biology, 2023)

Molecular target: T1, mouse Tas2r105 (Mus musculus, UniProt Q9JKT4)
T1 construct: expressed in transfected cells; host or cells: HEK293T-Gα16gust44
T1 sequence (Q9JKT4 1-300): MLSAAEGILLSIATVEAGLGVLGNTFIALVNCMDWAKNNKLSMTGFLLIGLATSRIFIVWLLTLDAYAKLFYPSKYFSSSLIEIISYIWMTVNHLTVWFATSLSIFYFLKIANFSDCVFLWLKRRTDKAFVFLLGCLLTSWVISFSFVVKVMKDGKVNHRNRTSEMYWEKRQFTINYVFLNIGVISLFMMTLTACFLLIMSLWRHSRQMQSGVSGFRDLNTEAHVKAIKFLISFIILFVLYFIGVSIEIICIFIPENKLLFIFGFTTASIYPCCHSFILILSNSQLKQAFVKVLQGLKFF
Assay: Calcium imaging assay (FLIPR), HEK293T-Gα16gust44 cells transfected with mouse Tas2r105
Assay type: cell-based

RLU (Time 0 s): 0 RLU
RLU (Time 2 s): -7.941 RLU
RLU (Time 4 s): 8.425 RLU
RLU (Time 6 s): -2.576 RLU
RLU (Time 8 s): 14.8013 RLU
RLU (Time 12 s): -9.724 RLU
RLU (Time 14 s): -8.452 RLU
RLU (Time 16 s): 1.889 RLU
RLU (Time 18 s): -2.18 RLU
RLU (Time 18.781 s): -20.0658 RLU
RLU (Time 20.781 s): -17.0266 RLU
RLU (Time 22.781 s): -39.9091 RLU
RLU (Time 24.781 s): 0.577 RLU
RLU (Time 26.781 s): -0.6161 RLU
RLU (Time 28.781 s): 4.903 RLU
RLU (Time 30.781 s): -6.367 RLU
RLU (Time 32.781 s): -0.4375 RLU
RLU (Time 34.781 s): 4.775 RLU
RLU (Time 36.781 s): -8.6591 RLU
RLU (Time 38.781 s): -14.3055 RLU
RLU (Time 40.781 s): 9.418 RLU
RLU (Time 42.781 s): -11.7018 RLU
RLU (Time 44.781 s): -11.9371 RLU
RLU (Time 46.781 s): 4.597 RLU
RLU (Time 48.781 s): 27.0511 RLU
RLU (Time 50.781 s): -9.756 RLU
RLU (Time 52.781 s): 20.1786 RLU
RLU (Time 54.781 s): 19.4961 RLU
RLU (Time 56.781 s): 5.269 RLU
RLU (Time 58.781 s): 38.5167 RLU
RLU (Time 60.781 s): 24.5618 RLU
RLU (Time 62.781 s): 36.5379 RLU
RLU (Time 64.781 s): 21.9337 RLU
RLU (Time 66.781 s): 35.0054 RLU
RLU (Time 68.781 s): 34.4928 RLU
RLU (Time 70.781 s): 42.8161 RLU
RLU (Time 72.781 s): 53.1321 RLU
RLU (Time 74.781 s): 54.3186 RLU
RLU (Time 76.781 s): 66.018 RLU
RLU (Time 78.781 s): 45.8125 RLU
RLU (Time 80.781 s): 59.5249 RLU
RLU (Time 82.781 s): 62.7416 RLU
RLU (Time 84.781 s): 68.7087 RLU
RLU (Time 86.781 s): 90.9377 RLU
RLU (Time 88.781 s): 81.07 RLU
RLU (Time 90.781 s): 72.636 RLU
RLU (Time 92.781 s): 97.4301 RLU
RLU (Time 94.781 s): 105.551 RLU
RLU (Time 96.781 s): 100.341 RLU
RLU (Time 98.781 s): 103.309 RLU
RLU (Time 100.781 s): 117.485 RLU
RLU (Time 102.781 s): 130.646 RLU
RLU (Time 104.781 s): 147.286 RLU
RLU (Time 106.781 s): 108.305 RLU
RLU (Time 108.781 s): 142.084 RLU
RLU (Time 110.781 s): 147.264 RLU
RLU (Time 112.781 s): 118.273 RLU
RLU (Time 114.781 s): 167.002 RLU
RLU (Time 116.781 s): 149.721 RLU
RLU (Time 118.781 s): 160.265 RLU
RLU (Time 120.781 s): 160.404 RLU
RLU (Time 122.781 s): 193.86 RLU
RLU (Time 124.781 s): 179.508 RLU
RLU (Time 126.781 s): 161.679 RLU
RLU (Time 128.781 s): 158.603 RLU
RLU (Time 130.781 s): 180.418 RLU
RLU (Time 132.781 s): 180.045 RLU
RLU (Time 134.781 s): 177.913 RLU
RLU (Time 136.781 s): 194.619 RLU
RLU (Time 137.562 s): 177.939 RLU
RLU (Time 143.562 s): 180.507 RLU
RLU (Time 149.562 s): 188.634 RLU
RLU (Time 155.562 s): 199.157 RLU
RLU (Time 161.562 s): 206.349 RLU
RLU (Time 167.562 s): 208.396 RLU
RLU (Time 173.562 s): 211.199 RLU
RLU (Time 179.562 s): 201.145 RLU
RLU (Time 185.562 s): 195.662 RLU
RLU (Time 191.562 s): 211.659 RLU
RLU (Time 197.562 s): 209.959 RLU
RLU (Time 203.562 s): 191.361 RLU
RLU (Time 209.562 s): 208.831 RLU
RLU (Time 215.562 s): 204.186 RLU
RLU (Time 221.562 s): 168.101 RLU
RLU (Time 227.562 s): 191.058 RLU
RLU (Time 233.562 s): 174.166 RLU
RLU (Time 239.562 s): 185.934 RLU
RLU (Time 245.562 s): 176.351 RLU
RLU (Time 293.562 s): 157.143 RLU
RLU (Time 299.562 s): 147.048 RLU
RLU (Time 305.562 s): 138.332 RLU
RLU (Time 311.562 s): 135.378 RLU
RLU (Time 317.562 s): 138.908 RLU
RLU (Time 323.562 s): 128.724 RLU
RLU (Time 329.562 s): 125.639 RLU
RLU (Time 335.562 s): 124.441 RLU
RLU (Time 341.562 s): 111.174 RLU
RLU (Time 347.562 s): 105.923 RLU
RLU (Time 353.562 s): 95.2183 RLU
RLU (Time 359.562 s): 94.5256 RLU
Activation threshold concentration Tas2r105 (p < 0.01 vs empty vector): 10 µM
SMILES: C[C@H](CCC(=O)O)[C@H]1CC[C@H]2[C@@H]3CC[C@@H]4C[C@H](O)CC[C@]4(C)[C@H]3C[C@H](O)[C@]12C [Deoxycholic Acid, deoxycholic acid]
